pKd: −log10 of the molar value.
Biological target: antithrombin (AT) (Homo sapiens, UniProt P01008)
Assay: ITC
Assay type: binding

Chain of antithrombin (AT) (P01008 33-464): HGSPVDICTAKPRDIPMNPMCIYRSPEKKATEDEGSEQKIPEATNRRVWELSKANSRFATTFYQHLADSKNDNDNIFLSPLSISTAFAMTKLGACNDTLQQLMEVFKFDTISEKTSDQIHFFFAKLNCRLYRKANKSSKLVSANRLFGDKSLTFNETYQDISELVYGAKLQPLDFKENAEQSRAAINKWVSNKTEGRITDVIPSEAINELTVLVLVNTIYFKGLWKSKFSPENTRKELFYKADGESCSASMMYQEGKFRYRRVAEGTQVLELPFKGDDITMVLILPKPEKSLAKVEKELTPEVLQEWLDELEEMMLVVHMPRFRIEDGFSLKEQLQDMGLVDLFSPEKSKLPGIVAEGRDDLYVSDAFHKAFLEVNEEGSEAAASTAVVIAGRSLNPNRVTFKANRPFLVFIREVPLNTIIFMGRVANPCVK

pKd | Structure (SMILES)
5.89 | O=C(O)[C@H]1O[C@@H](Oc2ccc([N+](=O)[O-])cc2)[C@H](O)[C@@H](O)[C@@H]1O[C@H]1O[C@H](COS(=O)(=O)O)[C@@H](O[C@@H]2O[C@@H](C(=O)O)[C@@H](O[C@H]3O[C@H](COS(=O)(=O)O)[C@@H](O[C@@H]4O[C@H](C(=O)O)[C@@H](O[C@H]5O[C@H](COS(=O)(=O)O)[C@@H](O)[C@H](O)[C@H]5NS(=O)(=O)O)[C@H](O)[C@H]4O)[C@H](OS(=O)(=O)O)[C@H]3NS(=O)(=O)O)[C@H](O)[C@H]2O)[C@H](O)[C@H]1NS(=O)(=O)O [hexa-8]
6.26 | O=C(O)[C@H]1O[C@@H](Oc2ccc([N+](=O)[O-])cc2)[C@H](O)[C@@H](O)[C@@H]1O[C@H]1O[C@H](COS(=O)(=O)O)[C@@H](O[C@@H]2O[C@@H](C(=O)O)[C@@H](O[C@H]3O[C@H](COS(=O)(=O)O)[C@@H](O[C@@H]4O[C@H](C(=O)O)[C@@H](O[C@H]5O[C@H](COS(=O)(=O)O)[C@@H](O)[C@H](O)[C@H]5NS(=O)(=O)O)[C@H](O)[C@H]4O)[C@H](OS(=O)(=O)O)[C@H]3NS(=O)(=O)O)[C@H](O)[C@H]2OS(=O)(=O)O)[C@H](O)[C@H]1NS(=O)(=O)O [hexa-4]

Reference: article PMC6517080 (Chembiochem : a European journal of chemical biology, 2018)
